This note sets out measurements from patent publication US20020039780A1, “Salicyclic acid inducible genes and promoters” (priority 1998, published 2002).

Structures are written as SMILES.

Holding throughout (type): cell-based
For one experiment, the system named is C6-2. In words: Northern analysis of mRNA accumulation in cultured tobacco cells. The method, then: (§1) FIG. 2. Time course of SA-induced gene expression. Northern analysis of representative differential display genes following treatment of cultured tobacco cells with SA for the indicated time (in hours, except lanes 2-4, which refer to 10, 20, and 30 min.). Twenty micrograms of total RNA was loaded per lane. Blots were hybridized with ddPCR fragments indicated at right or with the β-ATPase gene as a loading control probe. Autoradiogram exposure times were optimized for each gene. The signal for C18-1 was enhanced by using the full length cDNA as probe. Labels on left indicate response class.
(§2) FIG. 4. Specificity of induction among SA analogs and other signalling compounds. Northern analysis of representative differential display genes following treatment of tobacco cells with 100 μM or 1 mM (left and right side of triangles, respectively) of the following chemicals for 2-2.5 hr: salicylic acid (SA, lanes 4 and 5), acetylSA (ASA, lanes 6 and 7), benzoic acid (BA, lanes 8 and 9), 4-hydroxybenzoic (4HBA, lanes 10 and 11), thiamine (thia, lanes 12 and 13), methyljasmonate (MJ, lanes 14 and 15), abscisic acid (ABA, lanes 16 and 17), or 2,4-dichlorophenoxyacetic acid (2,4-D, lanes 18 and 19). Control treatments are H2O (H, lane 1), 1% ethanol (E, solvent concentration in MJ treatments, lane 2), or 1% DMSO (D, solvent concentration in 2,4D treatments, lane 3). Blots were hybridized with ddPCR fragments indicated at right or with the β-ATPase geneas a loading control probe. Autoradiogram exposure times were optimized for each gene. The signal for C18-1 was enhanced by using the full length cDNA as probe. Labels on left indicate response class.
(§3) Differential display technology (Liang, P. and Pardee, A. B., Science 257: 967-971, 1992) was used to identify genes activated in the presence of SA, CHX and both. Therefore the absence or presence of SA, induction at 3 timepoints of SA-treatment, 2 different concentrations of SA and the effect of addition of CHX were measured. Seven treatments in total were performed. Treatment of tobacco BY-2 suspension cells and leaves and differential display PCR reactions were performed as described (Horvath and Chua (1996), Plant Mol. Biol. 31, 1061-1072).
(§4) The specificity for induction by SA was tested by treating tobacco cells with a range of SA analogs and plant signalling compounds at 0.1 and 1 mM for approximately 2.5 h. […] Among the SA-analogs, acetyl-SA (ASA, aspirin), benzoic acid (BA) and 4-hydroxybenzoic acid (4HBA), responses generally reflected the ability of the analog to substitute for SA in other cellular responses (Yalpani, N. et al., Plant Cell 3: 809-818, 1991, Yang, Y. and Klessig, D. F., Proc. Natl. Acad. Sci. 93, 14972-14977, 1996). […] Several genes, including those for proteinase inhibitors and lipoxygenase (Hildmann, T. et al., Plant Cell 4: 1157-1170, 1992; Melan, M. A. et al., Plant Physiol. 101: 441-450, 1993; Xu, D. et al., Plant Mol. Biol. 22: 573-588, 1993) are known to be under dual regulation by MJ and ABA. A similar mode of regulation may be in effect with C14-1b. the auxin 2,4-D induced several genes including C18-1/EREBP1 and C6-2.

A further experiment concerns C14-1b. The experiment is described as above. The method, then: as §1, §2, §3, §4
A further experiment deals with class II genes. The experiment can be described thus: Northern analysis of poly(A) mRNA from treated tobacco cells. The following applies: SA at 2, 4, 8 h; 71 μM CHX 5 hrs; CHX + 200 μM SA. The method, then:
(§5) FIG. 1. Four classes of SA-induced early genes. Northern analysis of genes identified by differential display. Gel-purified DNA fragments produced by ddPCR were either used directly for random-primed labeling and probing of Northern filters (e.g. C7-1, C6-1, and G9-2) or first subcloned and released by restriction digest. Each lane contains 1 μg of poly(A) mRNA from cultured tobacco cells treated with (1) H2O, 4 hr; (2) 200 μM SA, 4 hr; (3) 71 μM CHX, 5 hr; (4) 71 μM CHX, 5 hr plus 200 μM SA after 1 hr (4 hr total); (5) 20 μM SA, 2 hr; (7) 200 μM SA, 8 hr. One blot was sequentially hybridized with the G1-1 fragment and the β-ATPase gene as a loading control probe. response classes (I-IV) are indicated on the left of the autoradiograms.
as §3
(§6) Fiftytwo were recovered for testing on poly(A)+Northern blots loaded with mRNA derived from cells from each of the treatments.

The subject of the next experiment is Class I genes. The experiment is described as above. The following applies: SA at 2, 4 or 8 h; 71 μM CHX 5 hrs; CHX + 200 μM SA. The method, then:
as §5, §3, §6

The test system of experiment [1] is class IV genes (G3-2 and C14-1b). Described as above. The following applies: SA at 2, 4, 8 h; 71 μM CHX 5 hrs. The method, then:
as §5, §3, §6

[2] abbreviates: 0.1 and 1 mM, approximately 2.5 h.

With `O=C(O)c1ccccc1O` [SA, salicylic acid], the “C6-2 induction at 0.1 mM versus 1 mM” value with C6-2 (setting [2]) is given as “greater induction at 1mM”. In the experiment with C6-2 (SA time course), the “time at which C6-2 induction is apparent” value is not above 10 min, the “time of peak C6-2 mRNA” value is “approximately 1.5 h” and the “time of reduction of C6-2 mRNA to background levels” value was not above 4 h. The “induction of C14-1b” value in the experiment with C14-1b (setting [2]) is on record as “did not reveal response”. In the experiment with C14-1b (SA time course), the “time at which C14-1b induction is apparent” value fell in the range of 2 to 2.5 h and the “time of peak C14-1b expression” value is 5 h. For the same compound, the “mRNA induction of class II genes” value with class II genes was “rapid and transient”. Besides, in the experiment with Class I genes, the “mRNA induction of Class I genes” value is given as “little if any detectable mRNA accumulation”. Moreover, the “mRNA induction of class IV genes” value in experiment [1] was “rapid and sustained induction”.
